In patent EP4512806A1, “MOLECULAR GLUE DEGRADERS AND USES THEREOF” (Mablink Bioscience, priority 2023, dated 2025):

Legend:
JIMT-1 cells = assay: Cell cycle arrest assessment (propidium iodide, flow cytometry); format: cell-based, human
Method: 1×10^6 JIMT-1 cells were plated in 3mL of DMEM/FBS 90:10 (v/v) in 6-well plates and incubated overnight. Cells were treated with the compound 2384 of the invention or with CR8 for 24h. Cells were then harvested and washed three times with PBS. Cells were suspended into 300µL of propidium iodide working solution (0.05mg/mL) and incubated for 45 minutes at 4°C in the dark. Analysis was performed using a BD Fortessa flow cytometer controlled by BD FACSDiva software (BD Biosciences) and data were analyzed using FlowJo software (BD Bioscience).

SKBR-3 = assay: In vitro cytotoxicity assay (MTT); format: cell-based, human; settings: 6 days incubation
Source text: (§1) Human cancer cell lines used in the present project were purchased from either the American Type Culture Collection (ATCC), The Leibniz Institute DSMZ German Collection of Microorganisms and Cell Cultures GmbH (DSMZ) or the European Collection of Authenticated Cell Cultures (ECACC). For use in experiments, cells were cultivated following good and established cell culture practices, following instructions from the original ATCC/DSMZ/ECACC supplier for cell culture media & supplement, cryopreservation, and subculturing procedures. Cells were incubated under a 5% CO2 atmosphere at 37°C for no longer than 2 months.
(§2) In vitro cytotoxicity of compounds of the disclosure was assessed on several cancerous human cell lines. Cells were plated in 96-well plates at an appropriate density depending on the cell line (between 1000 and 10 000 cells/well in 100µL of appropriate culture media) and incubated at 37°C for 24 hours. Serial dilutions of the tested compound previously dissolved in culture media (50µL) were added, and incubation was carried at 37°C out for 6 days. MTT (5mg/mL in PBS, 20µL, Sigma-Aldrich) was added into the wells, and incubation was continued for 1 to 4 hours at 37°C. Culture media was then carefully removed, and well content was homogeneously dissolved with acidified isopropanol. Absorbance values were measured on a microplate reader using a wavelength of 570 nm (with a reference wavelength of 690 nm). The IC50 concentration values compared to untreated control cells were determined using inhibition dose response curve fitting (GraphPad Prism 9). Exatecan mesylate (cat#HY-13631A) and CR8 (CAS# 294646-77-8; cat#HY-18340) were purchased from MedChemExpress (China).

NCI-N87 = assay: In vitro cytotoxicity assay (MTT); format: cell-based, human; settings: 6 days incubation
Source text: as §1, §2

MDA-MB-453 = assay: In vitro cytotoxicity assay (MTT); format: cell-based, human; settings: 6 days incubation
Source text: as §1, §2

JIMT-1 = assay: In vitro cytotoxicity assay (MTT); format: cell-based, human; settings: 6 days incubation
Source text: as §1, §2

MDA-MB-231 = assay: In vitro cytotoxicity assay (MTT); format: cell-based, human; settings: 6 days incubation
Source text: as §1, §2

BT-474 = assay: In vitro cytotoxicity assay (MTT); format: cell-based, human; settings: 6 days incubation
Source text: as §1, §2

[1] = system: panel of human cancer cell lines; assay: In vitro cytotoxicity assay (MTT), panel of cell lines; format: cell-based; settings: panel of human cancer cell lines, in words
Source text: as §1, §2

CycK = molecular target: T1, CycK (Homo sapiens, UniProt O75909); assay: CycK protein quantification by Western Blot in JIMT-1 cells; format: cell-based; settings: 2h treatment, 10nM
T1 construct: endogenous in cells; host or cells: JIMT-1
Method: 1×10^6 JIMT-1 cells were plated in 3mL of DMEM/FBS 90:10 (v/v) in 6-well plates and incubated overnight. Cells were treated with the compound 2384 of the invention with or without the proteasome inhibitor MG-132 (MedChemExpress, Cat HY-13259) for 2h. Cells were harvested, and protein were extracted using complete RIPA buffer (RIPA buffer, 1 mM DTT, 1M NaF, 100 mM sodium orthovanadate, phosphatase inhibitor buffer and protease inhibitors) for 1 hour on ice. Lysate were centrifuged 15min at 12 000g at 4°C. and proteins were mixed with 4x Laemmli Sample Buffer (Bio-Rad), heated at 95 °C for 5 mins and separated by SDS PAGE (PROTEAN TGX Stain-Free Gels, Bio-Rad). Proteins were then transferred onto PVDF membrane (iBlot®2 PVDF stacks, Invitrogen) using the iBlot2 device (Invitrogen) and blocked with TBS buffer (Intercept® Blocking Buffer, LI-COR Biosciences). Primary antibodies were incubated overnight at 4°C and secondary antibodies (IRDye Infrared Dyes from LI-COR Biosciences) 1 hour at room temperature. Used primary antibody were: anti-CycK (cat#A301-939A, Bethyl Laboratories, dil. 1:1000) and anti-β-actin (cat#A5441, Sigma-Aldrich, dil. 1:5000). Membranes were scanned using a c500 Imaging System (Azure Biosystems) and densitometric quantification were performed using imaged software. Protein levels were normalized against β-actin.

T1 sequence (O75909 whole entry): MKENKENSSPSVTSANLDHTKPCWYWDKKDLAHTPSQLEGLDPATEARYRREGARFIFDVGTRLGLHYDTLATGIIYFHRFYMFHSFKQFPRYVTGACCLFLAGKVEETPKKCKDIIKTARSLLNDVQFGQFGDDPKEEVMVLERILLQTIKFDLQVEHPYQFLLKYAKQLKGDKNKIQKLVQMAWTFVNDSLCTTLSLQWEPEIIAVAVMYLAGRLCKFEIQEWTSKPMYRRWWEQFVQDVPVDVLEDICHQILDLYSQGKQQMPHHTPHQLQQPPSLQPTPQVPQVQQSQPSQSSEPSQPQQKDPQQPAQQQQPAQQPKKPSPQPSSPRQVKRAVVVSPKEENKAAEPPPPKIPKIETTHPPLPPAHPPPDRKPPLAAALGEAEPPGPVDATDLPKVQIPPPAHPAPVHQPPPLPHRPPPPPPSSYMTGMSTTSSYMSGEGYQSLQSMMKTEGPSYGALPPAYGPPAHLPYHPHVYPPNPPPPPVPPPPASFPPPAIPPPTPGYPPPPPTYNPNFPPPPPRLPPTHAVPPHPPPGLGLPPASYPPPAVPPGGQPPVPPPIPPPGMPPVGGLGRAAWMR
T1 sequence (Q9NYV4 whole entry partner): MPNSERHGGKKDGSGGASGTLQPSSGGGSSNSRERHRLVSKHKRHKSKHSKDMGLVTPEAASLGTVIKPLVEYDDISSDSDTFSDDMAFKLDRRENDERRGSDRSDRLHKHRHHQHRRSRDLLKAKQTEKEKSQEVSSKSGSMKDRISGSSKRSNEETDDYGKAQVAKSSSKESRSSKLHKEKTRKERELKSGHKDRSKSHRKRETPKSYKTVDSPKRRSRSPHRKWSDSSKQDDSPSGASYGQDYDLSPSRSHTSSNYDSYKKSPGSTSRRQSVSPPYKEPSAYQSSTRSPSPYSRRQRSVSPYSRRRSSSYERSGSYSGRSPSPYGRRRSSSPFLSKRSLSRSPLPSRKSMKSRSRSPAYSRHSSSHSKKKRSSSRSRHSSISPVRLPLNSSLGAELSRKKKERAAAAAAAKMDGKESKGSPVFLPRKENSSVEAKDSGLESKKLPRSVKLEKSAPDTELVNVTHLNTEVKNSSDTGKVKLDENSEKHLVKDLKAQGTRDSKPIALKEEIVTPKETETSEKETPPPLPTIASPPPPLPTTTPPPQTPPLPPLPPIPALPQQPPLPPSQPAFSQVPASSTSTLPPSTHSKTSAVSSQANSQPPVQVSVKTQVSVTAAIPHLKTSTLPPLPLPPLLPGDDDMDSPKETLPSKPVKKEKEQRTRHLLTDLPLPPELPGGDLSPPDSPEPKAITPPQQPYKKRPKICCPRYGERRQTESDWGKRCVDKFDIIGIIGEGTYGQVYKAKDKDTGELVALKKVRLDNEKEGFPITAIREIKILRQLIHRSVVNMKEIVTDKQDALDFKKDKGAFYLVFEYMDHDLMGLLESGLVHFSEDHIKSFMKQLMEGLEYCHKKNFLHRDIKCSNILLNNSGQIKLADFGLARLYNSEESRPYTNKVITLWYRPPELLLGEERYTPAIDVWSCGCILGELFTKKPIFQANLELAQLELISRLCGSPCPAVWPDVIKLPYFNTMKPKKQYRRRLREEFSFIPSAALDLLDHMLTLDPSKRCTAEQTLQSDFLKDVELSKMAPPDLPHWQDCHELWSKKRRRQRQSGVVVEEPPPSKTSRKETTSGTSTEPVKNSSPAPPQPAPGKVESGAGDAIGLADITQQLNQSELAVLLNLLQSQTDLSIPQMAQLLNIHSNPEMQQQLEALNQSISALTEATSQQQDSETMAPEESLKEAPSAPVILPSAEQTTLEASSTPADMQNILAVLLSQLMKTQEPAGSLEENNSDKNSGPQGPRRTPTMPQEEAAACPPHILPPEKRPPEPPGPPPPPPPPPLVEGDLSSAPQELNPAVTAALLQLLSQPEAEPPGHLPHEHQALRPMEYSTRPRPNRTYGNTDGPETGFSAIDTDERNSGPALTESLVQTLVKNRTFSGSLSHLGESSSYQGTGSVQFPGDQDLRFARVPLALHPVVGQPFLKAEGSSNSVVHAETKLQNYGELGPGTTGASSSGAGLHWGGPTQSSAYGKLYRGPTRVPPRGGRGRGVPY
T1 sequence (Q16531 whole entry partner): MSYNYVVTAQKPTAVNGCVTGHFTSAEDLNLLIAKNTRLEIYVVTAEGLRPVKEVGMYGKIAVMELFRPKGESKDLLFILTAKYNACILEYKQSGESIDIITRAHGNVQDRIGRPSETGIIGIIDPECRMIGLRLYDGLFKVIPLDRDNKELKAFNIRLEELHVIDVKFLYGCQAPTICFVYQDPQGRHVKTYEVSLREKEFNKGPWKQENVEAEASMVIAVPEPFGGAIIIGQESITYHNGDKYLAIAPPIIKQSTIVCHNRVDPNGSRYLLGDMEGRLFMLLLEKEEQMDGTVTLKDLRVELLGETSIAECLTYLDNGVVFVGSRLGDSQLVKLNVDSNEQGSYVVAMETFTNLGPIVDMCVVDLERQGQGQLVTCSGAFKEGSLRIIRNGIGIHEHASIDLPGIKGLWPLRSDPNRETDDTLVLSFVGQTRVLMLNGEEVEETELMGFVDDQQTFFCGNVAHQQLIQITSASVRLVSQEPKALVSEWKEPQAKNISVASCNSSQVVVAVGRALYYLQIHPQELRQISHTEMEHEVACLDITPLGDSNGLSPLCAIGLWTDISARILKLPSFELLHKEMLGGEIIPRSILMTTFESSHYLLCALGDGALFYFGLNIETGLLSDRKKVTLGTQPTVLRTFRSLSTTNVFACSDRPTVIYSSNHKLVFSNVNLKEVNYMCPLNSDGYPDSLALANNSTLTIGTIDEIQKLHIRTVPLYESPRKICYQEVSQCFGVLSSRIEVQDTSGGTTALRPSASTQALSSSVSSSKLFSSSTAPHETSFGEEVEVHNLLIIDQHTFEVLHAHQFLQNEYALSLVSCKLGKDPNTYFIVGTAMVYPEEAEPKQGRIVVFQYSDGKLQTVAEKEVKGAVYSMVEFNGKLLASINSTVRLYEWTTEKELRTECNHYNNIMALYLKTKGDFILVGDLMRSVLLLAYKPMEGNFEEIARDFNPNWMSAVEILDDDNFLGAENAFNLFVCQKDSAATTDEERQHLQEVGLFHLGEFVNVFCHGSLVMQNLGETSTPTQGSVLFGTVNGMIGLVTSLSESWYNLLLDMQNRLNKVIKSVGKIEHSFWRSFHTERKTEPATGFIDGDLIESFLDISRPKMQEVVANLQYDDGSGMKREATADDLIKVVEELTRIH

CC[C@H](CO)Nc1nc(NCc2ccc(-c3ccccn3)cc2)c2ncn(C(C)C)c2n1 [CR8, reference compound]
cell cycle analysis (propidium iodide) (JIMT-1 cells; 24h, 50 nM): arrest in G2/M phase | cell cycle analysis (propidium iodide) (JIMT-1 cells; 24h, 2, 5, and 10 nM): no impact on cell cycle | IC50 (SKBR-3): 30.6 nM | IC50 (NCI-N87): 62.2 nM | IC50 (MDA-MB-453): 40.3 nM | IC50 (JIMT-1): 25.2 nM | IC50 (MDA-MB-231): 10.4 nM | IC50 (BT-474): 18.4 nM | in vitro cytotoxic potency [1]: high nanomolar range | CycK degradation (CycK): no CycK was observed
